In US12721810B2, “Aqueous ophthalmic solutions of phentolamine and medical uses thereof” (Opus Genetics, Inc., priority 2013, dated 2026):
Counter-ions that a name gives are not always drawn.

Assay: Stability on storage: HPLC assay for API, impurities and degradants (Examples 1-4)
Format: physicochemical
Conditions: period of 4 weeks, 2-8° C. to 60° C.
Experimental: (§1) The injection volume was 10 μL.
as §1

stability in water: degrades rapidly
SMILES: Cc1ccc(N(CC2=NCCN2)c2cccc(O)c2)cc1 [phentolamine mesylate]
